Source: paper PMC9740789, “Investigation of In Vitro and In Vivo Metabolism of α-Amanitin in Rats Using Liquid Chromatography-Quadrupole Time-of-Flight Mass Spectrometric Method” (Molecules, 2022)

How the values were obtained:
[1] = In vitro metabolic stability in rat liver microsomes; format: in vitro ADME
Procedure: (§1) In vitro stability of α-amanitin at liver microsomal system was evaluated by a LC-qTOF-MS. The remaining % represents the percentage of the sample (α-amanitin) peak area to the internal standard (verapamil) peak area.
(§2) The in vitro half-life (T1/2) and the in vitro intrinsic clearance (CLint, in vitro) were calculated by using the slope (k) of the graph shown in Figure 3. The calculation formula is shown in Equations (1) and (2). (1) T1/2=ln2/k (2) CLint,in vitromL/min/mg=k×microsomal volume mL/microsomal protein mg
(§3) The concentration of liver microsomes (microsomal volume/microsomal protein) used in the experiment was 0.5 mL/mg. The obtained CLint, in vitro was used to calculate in vivo intrinsic clearance (CLint, in vivo). The equations for calculating CLint, in vivo is shown at Equation (3):(3) CLint,in vivomL/min/kg=CLint,in vitro×mg microsomal protein/g liver weight×(g liver weight/kg body weight)
(§4) The ratio of mg microsomal protein to g liver weight was 44.8 and 48.8 in rat and human, respectively. And the ratio of g liver weight/kg body weight was 40 and 25.7 in rat and human, respectively. The hepatic clearance (CLh) was calculated from CLint, in vivo in a well-stirred model using the following Equation (4):(4) CLhmL/min=(Qh×CLint,in vivo/Qh+CLint,in vivo)
(§5) Qh (mL/min/kg), the hepatic blood flow, is known to be 55.2 and 20.7 mL/min/kg in rat and human, respectively. As a result, α-amanitin has a low hepatic clearance according to the aforementioned well-stirred model.
(§6) A metabolic stability test of α-amanitin was performed in rat and human liver microsomes. Cofactors (NADPH regenerating system solution A and B), compound (100 μg/mL of α-amanitin), 0.5 M potassium phosphate buffer with pH 7.4, and DW were mixed and pre-incubated for 5 min at 37 °C. After the pre-incubation, 12 μL of rat or human liver microsome (20 mg/mL each) was added to a 468 μL of pre-incubated cofactor mixture and the mixture was incubated for 0, 15, 30, and 60 min. After the incubation for each time point, 100 μL of the mixture was aliquoted to a 1.5 mL E-tube at each time point and 100 μL of 50% ACN in MeOH which containing 250 ng/mL of verapamil as an internal standard for protein precipitation was added for stopping the reaction. Then the mixture was centrifuged at 10,000 rpm for 5 min. Then 180 μL of the supernatants was collected in a fresh E-tube and evaporated for 3 h. After evaporation, samples were reconstituted with 150 μL of 50% MeOH with 5 mM ammonium formate. After centrifugation at 10,000 rpm for 5 min, 140 μL of reconstituted sample was transferred to a LC-vial.

[2] = In vitro metabolic stability in human liver microsomes; format: in vitro ADME
Procedure: as §1, §2, §3, §4, §5, §6

[3] = In vitro MetID in CLM and HLM; format: in vitro ADME, cynomolgus monkey, human; conditions: in vitro MetID with GSH in liver microsomes of 5 species
Procedure: (§7) Therefore, in vitro and in vivo MetID were conducted to explore any possible different metabolites between the two systems. The in vitro and in vivo MetID samples were analyzed by a LC-qTOF-MS, and the data were used to elucidate a metabolite of α-amanitin using PeakView® and MetabolitePilot™. The structure of the metabolite of α-amanitin was predicted by MetabolitePilot™. The fragmentation pattern of the predicted metabolite ion from product ion scan was compared to the fragmentation pattern of the parent ion using PeakView®.
In vitro MetID was conducted in 5 species (mouse, rat, cynomolgus monkey, dog, and human) of liver microsomes. Cofactors (NADPH solution A and B, 5 mM UDPGA, and 0.5 mM GSH), compound (2 mg/mL of α-amanitin), and DW were mixed and pre-incubated for 5 min at 37 °C. After the pre-incubation, 20 μL of liver microsome (20 mg/mL) was added to 380 μL of cofactor mixture and incubated for 0 and 120 min at 37 °C. After the incubation for each time point, 150 μL of the mixture was transferred to 450 μL of 50% ACN in MeOH for stopping the reaction. Then the mixture was centrifuged at 10,000 rpm for 5 min. Then 550 μL of the supernatant was collected in a fresh E-tube and evaporated for 4 h. After evaporation, samples were reconstituted with 60 μL of 50% MeOH with 5 mM ammonium formate. […]

[4] = Rat in vivo MetID in pooled rat plasma; conditions: pooled rat plasma after IV 1 mg/kg
Procedure: as §7
For rat in vivo MetID, rat plasma samples collected after IV administration of α-amanitin with the dose of 1 mg/kg were pooled according to the Hamilton pooling method. Then 3 μL of DMSO was added to the 300 μL of pooled rat plasma. A control sample was made by mixing 300 μL of blank rat plasma and 3 μL of 0.5 mg/mL α-amanitin. Eight hundred microliter of 50% ACN in MeOH was added to the pooled rat plasma mixture and a control sample, respectively. Then the mixture was centrifuged at 10,000 rpm for 5 min. Then 900 μL of the supernatants was collected to a fresh E-tube and evaporated for 4 h. After evaporation, samples were reconstituted with 120 μL of 50% MeOH with 5 mM ammonium formate. After centrifugation at 10,000 rpm for 5 min, 100 μL of reconstituted sample was transferred to a LC-vial.
The high-resolution TOF full scan was used for metabolite profiling. […]

CC[C@H](C)[C@@H]1NC(=O)CNC(=O)[C@@H]2Cc3c([nH]c4cc(O)ccc34)[S@+]([O-])C[C@H](NC(=O)CNC1=O)C(=O)N[C@@H](CC(N)=O)C(=O)N1C[C@H](O)C[C@H]1C(=O)N[C@@H]([C@@H](C)[C@@H](O)CO)C(=O)N2 [α-amanitin]
remaining at 0.25 h ([1]; rat liver microsomes, 15 min incubation, NADPH regenerating system, potassium phosphate buffer pH 7.4, 37 °C, 5 min pre-incubation, LC-qTOF-MS): 94.2 ± 8.6%
remaining at 0.5 h ([1]; rat liver microsomes, 30 min incubation, NADPH regenerating system, potassium phosphate buffer pH 7.4, 37 °C, 5 min pre-incubation, LC-qTOF-MS): 93.1 ± 8.64%
remaining at 1 h ([1]; rat liver microsomes, 60 min incubation, NADPH regenerating system, potassium phosphate buffer pH 7.4, 37 °C, 5 min pre-incubation, LC-qTOF-MS): 90.3 ± 4.37%
half-life ([1]; rat liver microsomes, in vitro half-life, ln2/k from slope of ln(Remaining %) vs incubation time 0-60 min, NADPH, pH 7.4, 37 °C): 447 min
CLint, In Vitro ([1]; rat liver microsomes, k × microsomal volume/microsomal protein (0.5 mL/mg as printed)): <0.01 mL/min/mg
CLh ([1]; rat, predicted hepatic clearance, well-stirred model, Qh 55.2 mL/min/kg): 5.05 mL/min/kg
CLint, In Vivo ([1]; rat, scaled from CLint, in vitro with 44.8 mg microsomal protein/g liver and 40 g liver/kg body weight): 5.56 mL/min/kg
remaining at 0.25 h ([2]; human liver microsomes, 15 min incubation, NADPH regenerating system, potassium phosphate buffer pH 7.4, 37 °C, 5 min pre-incubation, LC-qTOF-MS): 89.2 ± 5.72%
remaining at 0.5 h ([2]; human liver microsomes, 30 min incubation, NADPH regenerating system, potassium phosphate buffer pH 7.4, 37 °C, 5 min pre-incubation, LC-qTOF-MS): 85.1 ± 5.52%
remaining at 1 h ([2]; human liver microsomes, 60 min incubation, NADPH regenerating system, potassium phosphate buffer pH 7.4, 37 °C, 5 min pre-incubation, LC-qTOF-MS): 82.6 ± 3.96%
half-life ([2]; human liver microsomes, in vitro half-life, ln2/k from slope of ln(Remaining %) vs incubation time 0-60 min, NADPH, pH 7.4, 37 °C): 236 min
CLint, In Vitro ([2]; human liver microsomes, k × microsomal volume/microsomal protein (0.5 mL/mg as printed)): <0.01 mL/min/mg
CLh ([2]; human, predicted hepatic clearance, well-stirred model, Qh 20.7 mL/min/kg): 5.43 mL/min/kg
CLint, In Vivo ([2]; human, scaled from CLint, in vitro with 48.8 mg microsomal protein/g liver and 25.7 g liver/kg body weight): 7.36 mL/min/kg
Reactive metabolites (GSH adducts) [3]: no reactive metabolites with GSH adducts were detected
Other metabolites in in vivo rat plasma [4]: no other significant metabolites
